Counter-ions that a name gives are not always drawn. Like-named read-outs stand apart in the source and are kept apart here.
Tests used:
[1] = target: T1, recombinant guanylate cyclase reporter cell line (Rattus norvegicus, UniProt P19686+P20595); test: Effect on a recombinant guanylate cyclase reporter cell line; assay type: cell-based
T1 construct: expressed in transfected cells; host or cells: recombinant reporter cell line
T1 sequence (P20595 1-619): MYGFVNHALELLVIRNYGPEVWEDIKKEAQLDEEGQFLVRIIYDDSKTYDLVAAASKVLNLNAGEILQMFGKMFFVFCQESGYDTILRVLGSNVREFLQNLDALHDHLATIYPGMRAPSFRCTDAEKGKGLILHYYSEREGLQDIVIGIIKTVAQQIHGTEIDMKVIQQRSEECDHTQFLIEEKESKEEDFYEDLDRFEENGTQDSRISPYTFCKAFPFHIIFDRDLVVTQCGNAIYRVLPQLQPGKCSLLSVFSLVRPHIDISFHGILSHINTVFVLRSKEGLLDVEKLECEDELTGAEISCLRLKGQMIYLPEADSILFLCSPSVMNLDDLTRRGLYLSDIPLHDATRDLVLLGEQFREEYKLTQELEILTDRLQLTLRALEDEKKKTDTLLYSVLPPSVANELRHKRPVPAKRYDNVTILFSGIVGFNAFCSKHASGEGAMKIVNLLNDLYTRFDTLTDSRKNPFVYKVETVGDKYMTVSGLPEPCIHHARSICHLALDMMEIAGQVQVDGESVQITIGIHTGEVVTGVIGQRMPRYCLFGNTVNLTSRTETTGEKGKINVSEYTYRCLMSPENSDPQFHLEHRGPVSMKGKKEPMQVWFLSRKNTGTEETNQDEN
T1 sequence (P19686 1-690): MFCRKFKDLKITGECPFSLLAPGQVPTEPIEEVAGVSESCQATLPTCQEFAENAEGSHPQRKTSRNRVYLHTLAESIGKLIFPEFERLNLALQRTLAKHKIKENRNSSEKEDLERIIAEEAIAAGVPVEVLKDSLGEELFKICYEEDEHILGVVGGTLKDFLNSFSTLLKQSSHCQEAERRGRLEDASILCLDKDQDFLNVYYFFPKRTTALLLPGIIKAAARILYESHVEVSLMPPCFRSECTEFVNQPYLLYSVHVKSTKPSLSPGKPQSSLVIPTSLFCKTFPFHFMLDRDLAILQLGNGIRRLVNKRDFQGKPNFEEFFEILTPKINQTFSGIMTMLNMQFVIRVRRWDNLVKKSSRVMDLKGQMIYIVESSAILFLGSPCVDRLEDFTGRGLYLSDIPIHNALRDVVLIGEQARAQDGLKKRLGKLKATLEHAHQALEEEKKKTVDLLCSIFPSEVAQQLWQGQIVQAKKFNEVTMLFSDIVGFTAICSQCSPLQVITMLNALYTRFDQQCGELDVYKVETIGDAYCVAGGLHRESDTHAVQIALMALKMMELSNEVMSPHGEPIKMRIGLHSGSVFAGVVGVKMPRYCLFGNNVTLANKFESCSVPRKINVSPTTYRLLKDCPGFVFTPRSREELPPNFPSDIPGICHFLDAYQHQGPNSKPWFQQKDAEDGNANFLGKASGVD
Experimental: The cellular activity of the compounds according to the invention was determined using a recombinant guanylate cyclase reporter cell line, as described in F. Wunder et al., Anal. Biochem. 339, 104-112 (2005).

[2] = Pharmacokinetic parameters following intravenous and oral administration in rats; assay type: in vivo, male Wistar rats; details: in rats as well as in dogs
Experimental: The pharmacokinetic parameters of the compounds according to the invention were determined in male Wistar rats and/or in female beagles and/or in cynomolgus monkeys and/or in male CD-1 mice. Intravenous administration in the case of mice and rats was carried out by means of a species-specific plasma/DMSO formulation, and in the case of dogs and monkeys by means of a water/PEG400/ethanol formulation. In all species, oral administration of the dissolved substance was performed via gavage, based on a water/PEG400/ethanol formulation.
An internal standard (which may also be a chemically unrelated substance) was added to the samples of the compounds of the invention, calibration samples and qualifiers, and there follows protein precipitation by means of acetonitrile in excess. […] The supernatant was analysed by LC-MS/MS using C18 reversed-phase columns and variable mobile phase mixtures. The substances were quantified via the peak heights or areas from extracted ion chromatograms of specific selected ion monitoring experiments.
The plasma concentration/time plots determined were used to calculate the pharmacokinetic parameters such as AUC,Cmax,t½ (terminal half-life), F (bioavailability), MRT (mean residence time) and CL (clearance), by means of a validated pharmacokinetic calculation program. […]

Compound | EC50 [1] [nM] | MEC (minimum effective concentration) [1] [nM] | lower plasma clearance (CLplasma) in comparison to example 174 in WO 2012/058132 [2] | MEC (minimum effective concentration) ([1]; hydrochloride) [nM]
CC(C)CN1CCN(c2ccc(-c3ccc(Cl)cc3N3CCCC(n4ncc(C(=O)O)c4C(F)(F)F)C3)cc2)CC1 (single isomer, unassigned) [Example 1, 1-[1-{4-Chloro-4′-[4-(2-methylpropyl)piperazin-1-yl][1,1′-biphenyl]-2-yl}piperidin-3-yl]-5-(trifluoromethyl)-1H-pyrazole-4-carboxylic acid] | 40 | 6.5 |  | 
CC(C)CN1CCN(c2ccc(-c3ccc(Cl)cc3N3CCCC(n4ncc(C(=O)O)c4C(F)(F)F)C3)cc2)CC1 (single isomer, unassigned) [Example 2, 1-[1-{4-chloro-4′-[4-(2-methylpropyl)piperazin-1-yl][1,1′-biphenyl]-2-yl}piperidin-3-yl]-5-(trifluoromethyl)-1H-pyrazole-4-carboxylic acid hydrochloride] | 11 |  | up to 10 times | 2.2
